{
  "source": "patent US9877956B2",
  "about": "“Antiviral compounds and methods of use thereof” (Trana Discovery, Inc., priority 2014, dated 2018)",
  "format_in_all_cases": "cell-based",
  "key": {"[1]": {"test": "Toxicity in PBMC (Cell Titer 96)", "conditions": "human, peripheral blood mononuclear cells (PBMC); PBMC, Cell Titer 96", "excerpt": "(§1) These compounds were further screened for activity in HIV-1-infected peripheral blood mononuclear cells (PBMC). The data (experiments were repeated, so duplicates are shown) is summarized in the tables below, and also in FIGS. 4A-B and 5A-B."}, "PBMC": {"system": "PBMC", "test": "Toxicity in PBMC (Cell Titer 96)", "conditions": "for % CC: O.D. relative to cell control; for TOXICITY VALUES (Cell Titer 96 - O.D. @ 490/650 nm), SAMPLE: individual samples", "excerpt": "as §1"}, "HIV-1/Ba-L": {"system": "HIV-1/Ba-L", "test": "Inhibition of HIV-1 Ba-L replication in PBMC (RT values)", "conditions": "for % VC: RT relative to virus control; for RT Values (cpm), SAMPLE: individual samples", "experimental": "as §1\nThe HIV strain was HIV-1/Ba-L. The titer was 0.1 μL/well."}},
  "note": "Where “and” joins values, the source holds several entries; their conditions need not be identical. Equal values may be shown once.",
  "data": [
    {"smiles": "c1ccc(N/N=C2/CCc3ccccc3N2)cc1", "note": "[HIT #154]", "values": [
      {"measurement": "CC50", "setting": "[1]", "result": "> 100", "unit": "µM"},
      {"measurement": "TOXICITY VALUES (Cell Titer 96 - O.D. @ 490/650 nm), MEAN", "setting": "PBMC; 0.01 μM", "result": 0.990, "unit": "O.D."},
      {"measurement": "% CC", "setting": "PBMC; 0.01 μM", "result": 119.6, "unit": "%"},
      {"measurement": "TOXICITY VALUES (Cell Titer 96 - O.D. @ 490/650 nm), SAMPLE", "setting": "PBMC; 0.01 μM", "result": "1.163 O.D. and 1.007 O.D. and 0.800 O.D."},
      {"measurement": "TOXICITY VALUES (Cell Titer 96 - O.D. @ 490/650 nm), MEAN", "setting": "PBMC; 0.03 μM", "result": 0.810, "unit": "O.D."},
      {"measurement": "% CC", "setting": "PBMC; 0.03 μM", "result": 97.9, "unit": "%"},
      {"measurement": "TOXICITY VALUES (Cell Titer 96 - O.D. @ 490/650 nm), SAMPLE", "setting": "PBMC; 0.03 μM", "result": "0.746 O.D. and 0.831 O.D. and 0.853 O.D."},
      {"measurement": "TOXICITY VALUES (Cell Titer 96 - O.D. @ 490/650 nm), MEAN", "setting": "PBMC; 0.10 μM", "result": 0.966, "unit": "O.D."},
      {"measurement": "% CC", "setting": "PBMC; 0.10 μM", "result": 116.8, "unit": "%"},
      {"measurement": "TOXICITY VALUES (Cell Titer 96 - O.D. @ 490/650 nm), SAMPLE", "setting": "PBMC; 0.10 μM", "result": "1.086 O.D. and 0.970 O.D. and 0.843 O.D."},
      {"measurement": "TOXICITY VALUES (Cell Titer 96 - O.D. @ 490/650 nm), MEAN", "setting": "PBMC; 0.32 μM", "result": 0.937, "unit": "O.D."},
      {"measurement": "% CC", "setting": "PBMC; 0.32 μM", "result": 113.3, "unit": "%"},
      {"measurement": "TOXICITY VALUES (Cell Titer 96 - O.D. @ 490/650 nm), SAMPLE", "setting": "PBMC; 0.32 μM", "result": "0.736 O.D. and 1.231 O.D. and 0.845 O.D."},
      {"measurement": "TOXICITY VALUES (Cell Titer 96 - O.D. @ 490/650 nm), MEAN", "setting": "PBMC; 1.00 μM", "result": 1.077, "unit": "O.D."},
      {"measurement": "% CC", "setting": "PBMC; 1.00 μM", "result": 130.2, "unit": "%"},
      {"measurement": "TOXICITY VALUES (Cell Titer 96 - O.D. @ 490/650 nm), SAMPLE", "setting": "PBMC; 1.00 μM", "result": "1.296 O.D. and 1.045 O.D. and 0.892 O.D."},
      {"measurement": "TOXICITY VALUES (Cell Titer 96 - O.D. @ 490/650 nm), MEAN", "setting": "PBMC; 3.16 μM", "result": 0.964, "unit": "O.D."},
      {"measurement": "% CC", "setting": "PBMC; 3.16 μM", "result": 116.5, "unit": "%"},
      {"measurement": "TOXICITY VALUES (Cell Titer 96 - O.D. @ 490/650 nm), SAMPLE", "setting": "PBMC; 3.16 μM", "result": "1.146 O.D. and 0.903 O.D. and 0.843 O.D."},
      {"measurement": "TOXICITY VALUES (Cell Titer 96 - O.D. @ 490/650 nm), MEAN", "setting": "PBMC; 10.0 μM", "result": 0.937, "unit": "O.D."},
      {"measurement": "% CC", "setting": "PBMC; 10.0 μM", "result": 113.2, "unit": "%"},
      {"measurement": "TOXICITY VALUES (Cell Titer 96 - O.D. @ 490/650 nm), SAMPLE", "setting": "PBMC; 10.0 μM", "result": "0.712 O.D. and 1.254 O.D. and 0.846 O.D."},
      {"measurement": "TOXICITY VALUES (Cell Titer 96 - O.D. @ 490/650 nm), MEAN", "setting": "PBMC; 31.6 μM", "result": 0.962, "unit": "O.D."},
      {"measurement": "% CC", "setting": "PBMC; 31.6 μM", "result": 116.3, "unit": "%"},
      {"measurement": "TOXICITY VALUES (Cell Titer 96 - O.D. @ 490/650 nm), SAMPLE", "setting": "PBMC; 31.6 μM", "result": "0.898 O.D. and 1.018 O.D. and 0.970 O.D."},
      {"measurement": "TOXICITY VALUES (Cell Titer 96 - O.D. @ 490/650 nm), MEAN", "setting": "PBMC; 100 μM", "result": 0.769, "unit": "O.D."},
      {"measurement": "% CC", "setting": "PBMC; 100 μM", "result": 92.9, "unit": "%"},
      {"measurement": "TOXICITY VALUES (Cell Titer 96 - O.D. @ 490/650 nm), SAMPLE", "setting": "PBMC; 100 μM", "result": "0.757 O.D. and 0.854 O.D. and 0.697 O.D."},
      {"measurement": "TC 90%", "setting": "PBMC; PBMC, Cell Titer 96", "result": ">100", "unit": "µM"},
      {"measurement": "TC 95%", "setting": "PBMC; PBMC, Cell Titer 96", "result": ">100", "unit": "µM"},
      {"measurement": "RT Values (cpm), MEAN", "setting": "HIV-1/Ba-L; 0.01 μM", "result": 29112.2, "unit": "cpm"},
      {"measurement": "% VC", "setting": "HIV-1/Ba-L; 0.01 μM", "result": 98.8, "unit": "%"},
      {"measurement": "RT Values (cpm), SAMPLE", "setting": "HIV-1/Ba-L; 0.01 μM", "result": "31907 cpm and 25645 cpm and 29785 cpm"},
      {"measurement": "RT Values (cpm), MEAN", "setting": "HIV-1/Ba-L; 0.03 μM", "result": 29394.5, "unit": "cpm"},
      {"measurement": "% VC", "setting": "HIV-1/Ba-L; 0.03 μM", "result": 99.8, "unit": "%"},
      {"measurement": "RT Values (cpm), SAMPLE", "setting": "HIV-1/Ba-L; 0.03 μM", "result": "28419 cpm and 27673 cpm and 32092 cpm"},
      {"measurement": "RT Values (cpm), MEAN", "setting": "HIV-1/Ba-L; 0.10 μM", "result": 28793.5, "unit": "cpm"},
      {"measurement": "% VC", "setting": "HIV-1/Ba-L; 0.10 μM", "result": 97.8, "unit": "%"},
      {"measurement": "RT Values (cpm), SAMPLE", "setting": "HIV-1/Ba-L; 0.10 μM", "result": "24503 cpm and 28356 cpm and 33522 cpm"},
      {"measurement": "RT Values (cpm), MEAN", "setting": "HIV-1/Ba-L; 0.32 μM", "result": 28067.5, "unit": "cpm"},
      {"measurement": "% VC", "setting": "HIV-1/Ba-L; 0.32 μM", "result": 95.3, "unit": "%"},
      {"measurement": "RT Values (cpm), SAMPLE", "setting": "HIV-1/Ba-L; 0.32 μM", "result": "30361 cpm and 24204 cpm and 29638 cpm"},
      {"measurement": "RT Values (cpm), MEAN", "setting": "HIV-1/Ba-L; 1.00 μM", "result": 19065.5, "unit": "cpm"},
      {"measurement": "% VC", "setting": "HIV-1/Ba-L; 1.00 μM", "result": 64.7, "unit": "%"},
      {"measurement": "RT Values (cpm), SAMPLE", "setting": "HIV-1/Ba-L; 1.00 μM", "result": "18120 cpm and 21373 cpm and 17704 cpm"},
      {"measurement": "RT Values (cpm), MEAN", "setting": "HIV-1/Ba-L; 3.16 μM", "result": 15141.8, "unit": "cpm"},
      {"measurement": "% VC", "setting": "HIV-1/Ba-L; 3.16 μM", "result": 51.4, "unit": "%"},
      {"measurement": "RT Values (cpm), SAMPLE", "setting": "HIV-1/Ba-L; 3.16 μM", "result": "12447 cpm and 16921 cpm and 16058 cpm"},
      {"measurement": "RT Values (cpm), MEAN", "setting": "HIV-1/Ba-L; 10.0 μM", "result": 12407.5, "unit": "cpm"},
      {"measurement": "% VC", "setting": "HIV-1/Ba-L; 10.0 μM", "result": 42.1, "unit": "%"},
      {"measurement": "RT Values (cpm), SAMPLE", "setting": "HIV-1/Ba-L; 10.0 μM", "result": "13978 cpm and 10363 cpm and 12882 cpm"},
      {"measurement": "RT Values (cpm), MEAN", "setting": "HIV-1/Ba-L; 31.6 μM", "result": 9086.8, "unit": "cpm"}
    ]}
  ]
}
